Laboratory results reported in patent US12552833B2, “Dynamics within supramolecuar IKVAV matrices enhance functional maturation of human IPSCS-derived neurons and regeneration” (Northwestern University, priority 2019, dated 2026).
No end group written: not given here. *: point of attachment. Palmitoyl = CCCCCCCCCCCCCCCC(=O)*

Tests used:
human MNs [1] = experiment: Patch-electrode recording of action potentials from human MNs grown on A2G2 and laminin matrices; type: cell-based; conditions: MNs grown on A2G2 compared with laminin matrices, day 48-49 (FIG. 4L)
Description: Motor neurons (MN) differentiation: At 70% confluency, iPSC cultures were dissociated using Accutase and plated at a density of 10^5 cells/cm^2 with 10 μM ROCK inhibitor (Y-27632, DNSK International) in mTeSR1. Next day (day 0), media was replaced with N2B27 medium (50% DMEM:F12, 50% Neurobasal, supplemented with NEAA, Glutamax, N2 and B27; Gibco, Life Technologies) containing 10 μM SB431542 (DNSK International), 100 nM LDN-193189 (DNSK International), 1 μM Retinoic Acid (RA, Sigma) and 1 μM of Smoothened-Agonist (SAG, DNSK International). Culture medium was daily changed until day 6, then was switched to N2B27 medium supplemented with 1 μM RA, 1 μM SAG, 5 μM DAPT (DNSK International) and 4 μM SU5402 (DNSK International). Cells were fed daily until day 14, when MNs were dissociated using TrypLE Express (Gibco, Life Technologies) supplemented with DNase I (Worthington) and plated onto pre-coated poly-D-Lysine/laminin or the distinct IKVAV-coated surfaces. MNs were feed 3 times a week with neurobasal medium (NBM: NEAA, Glutamax, N2 and B27) supplemented with Ascorbic acid (0.2 μg/ml; Sigma-Aldrich), BDNF, CNTF and GDNF (10 ng/mL, R&D systems) and 1% fetal bovine serum (FBS).

human MNs [2] = experiment: Tandem mass spectrometry and gene ontology (GO) analysis of proteins differentially expressed in MNs cultured on A2G2 IKVAV PA vs. laminin coated surfaces; type: cell-based; conditions: A2G2 condition vs. laminin; 21 out of the 58 GO terms of Ho et al., 2016 (FIG. 31A)
Description: FIGS. 31A-31C Assessment of MN maturation through gene ontology (GO) analysis of proteins differentially expressed in MNs cultured on A2G2 IKVAV PA and laminin coated surfaces. Tandem mass spectrometry analysis uncovered differentially expressed proteins between MNs plated on […] surfaces, that are associated with GO terms that have been directly linked to human MN maturation (Ho et al., 2016). (FIG. 31A) From the differentially expressed proteins in A2G2 condition, 21 out of the 58 (36%) GO terms associated with maturation of human MNs were identified. […] Horizontal bar plots display the p-values of the MN maturation related GO terms identified in the protein data set. Pie charts represent the percentage of GO terms obtained in this study compared to the previously described GO terms associated with MN maturation (Ho et al., 2016).
Motor neurons (MN) differentiation: At 70% confluency, iPSC cultures were dissociated using Accutase and plated at a density of 10^5 cells/cm^2 with 10 μM ROCK inhibitor (Y-27632, DNSK International) in mTeSR1. Next day (day 0), media was replaced with N2B27 medium (50% DMEM:F12, 50% Neurobasal, supplemented with NEAA, Glutamax, N2 and B27; Gibco, Life Technologies) containing 10 μM SB431542 (DNSK International), 100 nM LDN-193189 (DNSK International), 1 μM Retinoic Acid (RA, Sigma) and 1 μM of Smoothened-Agonist (SAG, DNSK International). […]

Substance: C16A2G2E4GIKVAV (Palmitoyl-AAGGEEEEGIKVAV) [IKVAV peptide amphiphile with A2G2 structural segment]
- action potential amplitude (human MNs [1]): significantly larger amplitude
- action potential rates of rise and fall (human MNs [1]): faster rates of rise and fall
- GO terms associated with maturation of human MNs identified from the differentially expressed proteins (human MNs [2]): 36%
